# Measurements as given in PubChem BioAssay (NCI).
#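 GI50 = concentration required for 50% inhibition of growth. TGI: total growth inhibition.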
# Legend:
# Assay in all cases: NCI anticancer screen, dose series, 384-well format
# NCI-H322M lung = tested on: NCI-H322M lung
# KM12 colon = tested on: KM12 colon
# SK-OV-3 ovarian = tested on: SK-OV-3 ovarian
# SW-620 colon = tested on: SW-620 colon
# NCI-H522 lung = tested on: NCI-H522 lung
# HCT-15 colon = tested on: HCT-15 colon
# OVCAR-3 ovarian = tested on: OVCAR-3 ovarian
# UACC-257 melanoma = tested on: UACC-257 melanoma
# LOX IMVI melanoma = tested on: LOX IMVI melanoma
# RXF 393 renal = tested on: RXF 393 renal
# M14 melanoma = tested on: M14 melanoma
# MDA-MB-468 breast = tested on: MDA-MB-468 breast
# SF-268 CNS = tested on: SF-268 CNS
# MDA-MB-435 melanoma = tested on: MDA-MB-435 melanoma
# A498 renal = tested on: A498 renal
# IGROV1 ovarian = tested on: IGROV1 ovarian
# SF-295 CNS = tested on: SF-295 CNS
# HT29 colon = tested on: HT29 colon
# 786-0 renal = tested on: 786-0 renal
# HS 578T breast = tested on: HS 578T breast
# SK-MEL-28 melanoma = tested on: SK-MEL-28 melanoma
# SF-539 CNS = tested on: SF-539 CNS
# HOP-92 NSCLC = tested on: HOP-92 NSCLC
# HOP-62 NSCLC = tested on: HOP-62 NSCLC
# MOLT-4 leukemia = tested on: MOLT-4 leukemia
# NCI/ADR-RES ovarian = tested on: NCI/ADR-RES ovarian
# TK-10 renal = tested on: TK-10 renal
# OVCAR-5 ovarian = tested on: OVCAR-5 ovarian
# HCC-2998 colon = tested on: HCC-2998 colon
# SNB-75 CNS = tested on: SNB-75 CNS
# DU-145 prostate = tested on: DU-145 prostate
# COLO 205 colon = tested on: COLO 205 colon
# UACC-62 melanoma = tested on: UACC-62 melanoma
# RPMI-8226 leukemia = tested on: RPMI-8226 leukemia
# UO-31 renal = tested on: UO-31 renal
# MDA-MB-231 breast = tested on: MDA-MB-231 breast
# MCF7 breast = tested on: MCF7 breast
# HCT-116 colon = tested on: HCT-116 colon
# ACHN renal = tested on: ACHN renal
# A549 NSCLC = tested on: A549 NSCLC
# OVCAR-4 ovarian = tested on: OVCAR-4 ovarian
# U251 glioblastoma = tested on: U251 glioblastoma
# SN12C renal = tested on: SN12C renal
# NCI-H226 lung = tested on: NCI-H226 lung
# EKVX NSCLC = tested on: EKVX NSCLC
# CCRF-CEM leukemia = tested on: CCRF-CEM leukemia
# MALME-3M melanoma = tested on: MALME-3M melanoma
# OVCAR-8 ovarian = tested on: OVCAR-8 ovarian
# BT-549 breast = tested on: BT-549 breast
# K-562 leukemia = tested on: K-562 leukemia
# NCI-H23 lung = tested on: NCI-H23 lung
# NCI-H460 NSCLC = tested on: NCI-H460 NSCLC
# HL-60(TB) leukemia = tested on: HL-60(TB) leukemia
# SNB-19 CNS = tested on: SNB-19 CNS
# T-47D breast = tested on: T-47D breast
# PC-3 prostate = tested on: PC-3 prostate
# CAKI-1 renal = tested on: CAKI-1 renal
# SK-MEL-5 melanoma = tested on: SK-MEL-5 melanoma
smiles,measurement,setting,value
CN[C@@H](C)C(=O)N[C@H](C(=O)N1CCC[C@H]1c1nc(C(=O)c2ccc(F)cc2)cs1)C1CCCCC1,GI50,NCI-H322M lung,20.3 µM
same,TGI,NCI-H322M lung,51.4 µM
same,GI50,KM12 colon,17.3 µM
same,TGI,KM12 colon,32.2 µM
same,GI50,SK-OV-3 ovarian,0.0692 µM
same,TGI,SK-OV-3 ovarian,1.58 µM
same,GI50,SW-620 colon,23.9 µM
same,TGI,SW-620 colon,47.8 µM
same,GI50,NCI-H522 lung,6.47 µM
same,TGI,NCI-H522 lung,20.8 µM
same,GI50,HCT-15 colon,20.3 µM
same,TGI,HCT-15 colon,42 µM
same,GI50,OVCAR-3 ovarian,11.4 µM
same,TGI,OVCAR-3 ovarian,25.2 µM
same,GI50,UACC-257 melanoma,15.4 µM
same,TGI,UACC-257 melanoma,28.8 µM
same,GI50,LOX IMVI melanoma,16.2 µM
same,TGI,LOX IMVI melanoma,29.7 µM
same,GI50,RXF 393 renal,0.409 µM
same,TGI,RXF 393 renal,11.1 µM
same,GI50,M14 melanoma,18.2 µM
same,TGI,M14 melanoma,32.2 µM
same,GI50,MDA-MB-468 breast,1.86 µM
same,TGI,MDA-MB-468 breast,13.8 µM
same,GI50,SF-268 CNS,18.5 µM
same,TGI,SF-268 CNS,36.9 µM
same,GI50,MDA-MB-435 melanoma,14.1 µM
same,TGI,MDA-MB-435 melanoma,33.5 µM
same,GI50,A498 renal,15.5 µM
same,TGI,A498 renal,29.1 µM
same,GI50,IGROV1 ovarian,21.2 µM
same,TGI,IGROV1 ovarian,39.5 µM
same,GI50,SF-295 CNS,16.4 µM
same,TGI,SF-295 CNS,30.9 µM
same,GI50,HT29 colon,17.1 µM
same,TGI,HT29 colon,31.1 µM
same,GI50,786-0 renal,15.8 µM
same,TGI,786-0 renal,29.3 µM
same,GI50,HS 578T breast,5.06 µM
same,TGI,HS 578T breast,20.8 µM
same,GI50,SK-MEL-28 melanoma,16.4 µM
same,TGI,SK-MEL-28 melanoma,30 µM
same,GI50,SF-539 CNS,17.5 µM
same,TGI,SF-539 CNS,31.3 µM
same,GI50,HOP-92 NSCLC,4.3 µM
same,TGI,HOP-92 NSCLC,19 µM
same,GI50,HOP-62 NSCLC,3.25 µM
same,TGI,HOP-62 NSCLC,17.6 µM
same,GI50,MOLT-4 leukemia,13.1 µM
same,TGI,MOLT-4 leukemia,25.7 µM
same,GI50,NCI/ADR-RES ovarian,17.1 µM
same,TGI,NCI/ADR-RES ovarian,34.9 µM
same,GI50,TK-10 renal,21.2 µM
same,TGI,TK-10 renal,53.3 µM
same,GI50,OVCAR-5 ovarian,23.4 µM
same,TGI,OVCAR-5 ovarian,51 µM
same,GI50,HCC-2998 colon,14.2 µM
same,TGI,HCC-2998 colon,27.4 µM
same,GI50,SNB-75 CNS,10.1 µM
same,TGI,SNB-75 CNS,25.6 µM
same,GI50,DU-145 prostate,17.9 µM
same,TGI,DU-145 prostate,39.3 µM
same,GI50,COLO 205 colon,17.1 µM
same,TGI,COLO 205 colon,32.5 µM
same,GI50,UACC-62 melanoma,18.7 µM
same,TGI,UACC-62 melanoma,34.1 µM
same,GI50,RPMI-8226 leukemia,6.69 µM
same,TGI,RPMI-8226 leukemia,20 µM
same,GI50,UO-31 renal,30 µM
same,TGI,UO-31 renal,> 100 µM
same,GI50,MDA-MB-231 breast,0.597 µM
same,TGI,MDA-MB-231 breast,3.29 µM
same,GI50,MCF7 breast,11.7 µM
same,TGI,MCF7 breast,26.1 µM
same,GI50,HCT-116 colon,18 µM
same,TGI,HCT-116 colon,32.3 µM
same,GI50,ACHN renal,23.3 µM
same,TGI,ACHN renal,56.7 µM
same,GI50,A549 NSCLC,26.8 µM
same,TGI,A549 NSCLC,> 100 µM
same,GI50,OVCAR-4 ovarian,0.044 µM
same,TGI,OVCAR-4 ovarian,0.51 µM
same,GI50,U251 glioblastoma,15.9 µM
same,TGI,U251 glioblastoma,29.7 µM
same,GI50,SN12C renal,53.8 µM
same,TGI,SN12C renal,> 100 µM
same,GI50,NCI-H226 lung,21.7 µM
same,TGI,NCI-H226 lung,60.5 µM
same,GI50,EKVX NSCLC,18.7 µM
same,TGI,EKVX NSCLC,41.3 µM
same,GI50,CCRF-CEM leukemia,7.4 µM
same,TGI,CCRF-CEM leukemia,20.7 µM
same,GI50,MALME-3M melanoma,0.33 µM
same,TGI,MALME-3M melanoma,2.99 µM
same,GI50,OVCAR-8 ovarian,10.2 µM
same,TGI,OVCAR-8 ovarian,24.1 µM
same,GI50,BT-549 breast,12 µM
same,TGI,BT-549 breast,24.4 µM
same,GI50,K-562 leukemia,16.8 µM
same,TGI,K-562 leukemia,30.5 µM
same,GI50,NCI-H23 lung,13.3 µM
same,TGI,NCI-H23 lung,35.2 µM
same,GI50,NCI-H460 NSCLC,20.2 µM
same,TGI,NCI-H460 NSCLC,34.8 µM
same,GI50,HL-60(TB) leukemia,0.612 µM
same,TGI,HL-60(TB) leukemia,3 µM
same,GI50,SNB-19 CNS,31.8 µM
same,TGI,SNB-19 CNS,> 100 µM
same,GI50,T-47D breast,13.1 µM
same,TGI,T-47D breast,27.6 µM
same,GI50,PC-3 prostate,19.5 µM
same,TGI,PC-3 prostate,38.7 µM
same,GI50,CAKI-1 renal,25.5 µM
same,TGI,CAKI-1 renal,48.4 µM
same,GI50,SK-MEL-5 melanoma,10.2 µM
same,TGI,SK-MEL-5 melanoma,21.8 µM
